# Where two headings read alike, the source gives them in different places.
# What was measured:
# [1] = room temperature; cited from earlier work
# [2] = cited from earlier work
# [3] = Pharmacokinetic analysis in rats (AND in plasma by HPLC); parameters: species or system male Sprague Dawley rats; settings: in vivo, rat
# Protocol: The pharmacokinetic analysis was carried out in male Sprague Dawley rats. The animals were kept in light controlled environment (Photoperiod~12 h, 23 ± 1 °C, 50 ± 5% humidity) with access to food and water ad libitum. […] In brief, 120 male rats were indiscriminately divided into 30 groups of 4 animals each similar to blood collection time points. AND and AND equivalent to 100 mg.kg^−1 in AND-2-HyP-β-CYD complex was administered orally by gavages.
# The AND in plasma was monitored up to 48 h post oral administration of AND and AND-2-HyP-β-CYD complex. Blood samples were collected in both groups at 0.083, 0.25, 0.5, 1, 2, 4, 8, 16, 24 and 48 h. About 750 μl of blood sample was isolated from the retro-orbital vein into microcentrifuge tubes containing 100 μl of 10 % w/v sodium citrate as anticoagulant. The plasma was extracted from the blood by centrifugation at 5000 rpm for 20 min at 4 °C and stored at -40 °C until analyzed.
# To extract the AND from plasma samples, plasma was typically mixed with methanol (1: 3 ratio) and vortexed for 20 min. Post mixing, the homogenate was centrifuged for 20 min at 5000 rpm to extract the proteins. The supernatant was filtered through 0.22 μm membrane filter and 10 μl was injected as specified earlier in to the HPLC system.
# Plasma concentration data were analyzed and computed for one-compartmental pharmacokinetic parameters. The following pharmacokinetic parameters were assessed: ke (h), t1/2 (h), Cmax (μg.mL^−1), AUClast (h.μg.mL^−1), AUCinf (h.μg.mL^−1), MRT (h), CLTotal (L.h^−1), Vd (L) and F %.
# [4] = Dissolution test (USP apparatus, SIF pH 7.2); assay type: physicochemical; settings: SIF pH 7.2, after 2 h
# Protocol: Dissolution testing was carried out using USP dissolution rate test apparatus as per the standard protocol with HPLC method as specified earlier. In brief, 100 mg of AND or 100 mg of AND equivalent in AND-2-HyP-β-CYD complex powder was suspended in simulated intestinal fluid (SIF, pH 7.2, 900 mL) and paddle was rotated at 50 rpm. The temperature of SIF was kept at 37 ± 2 °C. At specified time intervals, 2 mL of the SIF was taken and replaced with identical volume.
# [5] = in vivo, cited from earlier work
# [6] = Pharmacokinetic analysis in rats (AND in plasma by HPLC); settings: male, Sprague Dawley, in vivo, rat
# [7] = Solubility analysis by saturated solution method; assay type: physicochemical; settings: aqueous phase, 37 °C
# Protocol: The solubility of solid complex was measured by saturated solution method. […] Subsequently, suspension was filtered and 0.1 mL was diluted to 1 mL with water. […] All measurements were noticed in triplicate (n = 3).
# [8] = Cytotoxicity testing, MTT cell proliferation assay; assay type: cell-based; settings: African green monkey, Vero E6 cells, concentration not given, read-out: % Cell viability against Vero E6 cells
# Protocol: The cytotoxic effect of AND-2-HyP-β-CYD complex on the property of Vero E6 cells was evaluated by using MTT dye [3-(4,5-dimethylthiazol-2-yl)-2,5-diphenyltetrazolium bromide] assay technique. In brief, 1 × 10^4 Vero E6 cells were incubated for 24 h in serum DMEM (Dulbecco's Modified Eagle Medium) of about 200-μl in a 96 wells microtiter plate. Subsequently, Vero E6 cells were incubated for 24 h as well as 72 h with 10 μg.mL^−1 or 100-μg.mL^−1 of AND-2-HyP-β-CYD complex. On the other hand, remedisivir was taken as standard in identical concentration range. MTT dye stock solution (0.5 mg.mL^−1) was incorporated to each well of the microtiter plate post completion of incubation time. The plate was further incubated in 5% CO2 incubator at 37 °C for 4 h. The formazon crystals liberated after cell lysis, were suspended in 100 μL of DMSO (Dimethyl sulfoxide) in the last step. The absorbance was captured using reference wavelength of 630 nm in a ELISA reader at 570 nm.
# SARS-CoV-2 = test: microbe, parasite or virus in culture; assay type: cell-based; settings: for % Inhibition of virus replication post infection: concentration not given; for IC50: Severe acute respiratory syndrome coronavirus 2, Vero C1008, Vero E6 cells infected with SARS-CoV-2, MOI 0.01, qRT-PCR after 48 h
# [9] = male, Sprague Dawley, oral, 100 mg/kg (AND equivalent)
compound,measurement,setting,value
"CC(O)COC[C@H]1O[C@@H]2O[C@H]3[C@H](O)[C@@H](O)[C@@H](O[C@H]4[C@H](O)[C@@H](O)[C@@H](O[C@H]5[C@H](O)[C@@H](O)[C@@H](O[C@H]6[C@H](O)[C@@H](O)[C@@H](O[C@H]7[C@H](O)[C@@H](O)[C@@H](O[C@H]8[C@H](O)[C@@H](O)[C@@H](O[C@H]1[C@H](O)[C@H]2O)O[C@@H]8COCC(C)O)O[C@@H]7COCC(C)O)O[C@@H]6COCC(C)O)O[C@@H]5COCC(C)O)O[C@@H]4COCC(C)O)O[C@@H]3COCC(C)O (stereo partly drawn) [2-HyP-β-CYD, 2-Hydroxypropyl-β-cyclodextrin]",Aqueous solubility,[1],> 500000 µg/mL
"C=C1CC[C@@H]2[C@](C)(CO)[C@H](O)CC[C@@]2(C)[C@@H]1C/C=C1/C(=O)OC[C@H]1O [AND, Andrographolide]",log P,[2],2.632 ± 0.135
same,bioavailability,"[3]; male, Sprague Dawley, 100 mg.kg^−1, oral 100 mg/kg vs i.v. 10 mg/kg, read-out: F (%), bioavailability",15.9 ± 3.84%
same,AUC(0-inf),[3]; [9],1850 ± 306 µg·h/mL
same,AUC(0-t),[3]; [9],1220 ± 143 µg·h/mL
same,Cmax,[3]; [9],240 ± 75.4 µg/mL
same,half-life,[3]; [9],5.92 ± 0.21 h
same,MRT,"[3]; po, 100 mg/kg",1.49 ± 0.0.085 h
same,% release,[4],27.89 ± 1.32%
same,Half-life (t1/2),[5]; iv,1.86 ± 0.21 h
same,Absolute oral bioavailability,[5]; po,9.27 ± 1.69%
same,Cmax,[5]; po,0.73 ± 0.17 μM.L^−1
same,Half-life (t1/2),[5]; po,3.30 ± 0.35 h
same,Tmax,[5]; po,0.42 ± 0.14 h
same,AUC(0-inf),"[6]; iv, 10 mg/kg",891 ± 180 µg·h/mL
same,AUC(0-t),"[6]; iv, 10 mg/kg",801 ± 181 µg·h/mL
same,MRT,"[6]; iv, 10 mg/kg",1.11 ± 0.04 h
same,Vd,"[6]; iv, 10 mg/kg",0.013 ± 0.003 L
same,half-life,"[6]; iv, 10 mg/kg",0.859 ± 0.031 h
same,clearance,"[6]; iv, i.v., 10 mg/kg, read-out: CLTotal (converted)",0.183 mL/min
same,Tmax,"[6]; oral, 100 mg.kg^−1",2 h
same,solubility at 24 h,[7],6.39 ± 0.47 µg/mL
CCC(CC)COC(=O)[C@H](C)N[P@](=O)(OC[C@H]1O[C@@](C#N)(c2ccc3c(N)ncnn23)[C@H](O)[C@@H]1O)Oc1ccccc1 [Remdesivir],viability at 24 h,[8]; 24 h,99.2%
same,viability at 48 h,[8]; 48 h,94.4%
same,% Inhibition of virus replication post infection,"SARS-CoV-2; 24 h, E gene",72.26%
same,% Inhibition of virus replication post infection,"SARS-CoV-2; 24 h, N gene",77.61%
same,% Inhibition of virus replication post infection,"SARS-CoV-2; 48 h, E gene",99.64%
same,% Inhibition of virus replication post infection,"SARS-CoV-2; 48 h, N gene",99.76%
same,IC50,SARS-CoV-2; read-out: IC50 (E gene),0.09 µg/mL
same,IC50,SARS-CoV-2; read-out: IC50 (N gene),0.06 µg/mL
